The target of experiment [1] is T1, human CB1 receptor (Homo sapiens, UniProt P21554).
T1 construct: expressed in transfected cells; host or cells: HEK293
Briefly: bioSensAll GAPL-Gi2 BRET biosensor assay (antagonism of CP-55,940). It is filed as cell-based. As to conditions: HEK293 cells transfected with hCB1 and GAPL-Gi2 biosensor, EC75 of CP-55,940 (0.1 nM), overnight incubation, read-out: CB1 wt Gi2 IC50. The procedure:
(§1) Using polyethylenimine (PEI) transfection agent, HEK293 cells were transfected in suspension with the human CB1 or CB1b receptor and one of the following bioSensAll® assays: GAPL-Gi2, or β-arrestin plasma membrane (PM) translocation biosensor (+GRK2). Cells were directly seeded in 96-well plates immediately following transfection.
(§2) Cells were incubated with coelenterazine (luciferase substrate) and different test compounds prior to the measurement of BRET signals.
i) GAPL sensors are used to monitor the activation of heterotrimeric G proteins at the plasma membrane upon receptor stimulation. Specifically, these multimolecular BRET sensors detect the plasma membrane recruitment of proteins that interact with active Ga subunits in a G protein family-selective manner. G protein activation following receptor stimulation generally leads to an increase in the BRET signal.
(§3) HEK293 cells were maintained in Dulbecco's Modified Eagle Medium (DMEM) (Wisent; cat #319-030-CL: without sodium pyruvate, with 4.5 g/L glucose, without L-glutamine) supplemented with 1% penicillin-streptomycin (Wisent; cat #450-201-EL) and 2 or 10% fetal bovine serum (Wisent cat #090150).
(§4) HEK293 cells were co-transfected with hCB1 or hCB1b and one of the above-listed bioSensAll® assays. For each transfection condition: • the total amount of transfected DNA was kept constant at 1 μg per mL of cell culture to be transfected; whenever necessary, salmon sperm DNA (Invitrogen, cat #15632011) was used as ‘carrier’ DNA to supplement plasmid DNA (i.e., biosensor and receptor); • the PEI (polyethylenimine 25 kDa linear, PolyScience, cat #23966) to DNA ratio (ug:ug) was fixed at 3:1.
(§5) Transfections were carried out as follows: • DNA and PEI were first diluted separately in 150 mM NaCl. The volume of the diluent in each tube corresponds to 5% of the cell culture volume to be transfected. • Once DNA and PEI were diluted, the PEI-containing solution was added to the DNA solution and the DNA/PEI mixture immediately vortexed for 5 seconds. • The DNA/PEI mixture was incubated for at least 20 minutes at room temperature to allow for the formation of DNA/PEI complexes. • During the incubation, HEK293 cells were detached, counted and re-suspended in culture medium (composition specified above). • At the end of the incubation period, the DNA/PEI mixture was added to the cells. • Cells were finally distributed in 96-well plates (White Opaque 96-well/Microplates, Greiner, cat #655083 or CulturPlate-96, White Opaque 96-well Microplate, PerkinElmer, cat #6005688) at a density of 30 000 cells per well.
(§6) At ˜48 hours post-transfection: • Using 450-Select TS Biotek plate washer, culture medium was aspirated and replaced with 100 μl of Hank's Balanced Salt Solution buffer (HBSS) (Wisent, cat #319-067CL: without red phenol; with sodium bicarbonate, with calcium and magnesium, with HEPES) per well. This process was performed a total of two times (i.e., 2 washes). • After the washing step, the HP D300 digital dispenser (Tecan) was used to inject increasing doses (12) of test compounds (ranging from 0-600 nM) to wells. Three to five minutes later, an EC75 of CP-55,940 (0.1 nM for GAPL-Gi2 assay; 100 nM for β-arrestin PM translocation biosensor (+GRK2)) was added to columns 2-12 of each 96-well plate.
(§7) BRET signals were determined by calculating the ratio of light emitted by GFP-acceptor (515 nm) over light emitted by luciferase-donor (400 nm). All BRET ratios were standardized using the equation below with pre-established BRET values for positive and negative controls. The standardized BRET ratio is referred to as universal BRET (uBRET).
(§8) Resulting dose-response curves were fitted using the four-parameter logistic non-linear regression model in GraphPad Prism 9.
For orientation: BRET reads energy transfer from a luciferase to a nearby fluorophore.

Experiment [2] deals with T1, human CB1 receptor. Briefly: bioSensAll β-arrestin plasma membrane translocation BRET biosensor (+GRK2) assay (antagonism of CP-55,940). It is filed as cell-based. The note with it: HEK293 cells transfected with hCB1 and β-arrestin PM translocation biosensor (+GRK2), EC75 of CP-55,940 (100 nM), overnight incubation, read-out: CB1 wt βarr2 IC50. The procedure:
as §1, §2
ii) The multimolecular β-arrestin membrane recruitment biosensors allow for real-time spatio-temporal monitoring of β-arrestin 1 and β-arrestin 2 following GPCR activation. Specifically, these β-arrestin sensors were designed to detect the recruitment of proteins to the plasma membrane (β-arrestin PM) with localization to compartment resulting in an increased BRET signal.
as §3, §4, §5, §6, §7, §8

T1 sequence (P21554 whole entry): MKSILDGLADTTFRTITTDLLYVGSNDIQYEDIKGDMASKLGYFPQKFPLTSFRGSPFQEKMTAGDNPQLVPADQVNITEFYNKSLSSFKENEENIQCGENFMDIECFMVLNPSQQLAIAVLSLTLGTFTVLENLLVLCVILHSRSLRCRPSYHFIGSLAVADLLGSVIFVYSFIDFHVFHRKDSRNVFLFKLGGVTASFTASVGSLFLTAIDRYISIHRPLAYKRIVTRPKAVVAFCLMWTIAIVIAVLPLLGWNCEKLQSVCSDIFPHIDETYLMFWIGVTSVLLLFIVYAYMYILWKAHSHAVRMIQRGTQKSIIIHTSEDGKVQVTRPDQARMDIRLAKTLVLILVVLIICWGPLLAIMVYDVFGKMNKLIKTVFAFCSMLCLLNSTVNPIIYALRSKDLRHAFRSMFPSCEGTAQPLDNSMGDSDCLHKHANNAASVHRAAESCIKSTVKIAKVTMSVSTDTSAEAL

What is called IC50 is the point on the concentration scale where inhibition reaches its midpoint. On to `CC(C)(O)COc1cc(N2CCC[C@H](C(N)=O)C2)n2nc(-c3ccccc3Cl)c(-c3ccc(Cl)cc3)c2n1` [Compound 17(S), (3S)-1-[2-(2-chlorophenyl)-3-(4-chlorophenyl)-5-(2-hydroxy-2-methyl-propoxy)pyrazolo[1,5-a]pyrimidin-7-yl]piperidine-3-carboxamide], for which the figures for the IC50 at human CB1 receptor [1] and on human CB1 receptor [2] were 9.09 nM and 40.4 nM, respectively.
With `CC1(C(N)=O)CCN(c2cc(N3CCC[C@H]3C(=O)O)nc3c(-c4ccc(Cl)cc4)c(-c4ccccc4Cl)nn23)CC1` [Compound 18, (2S)-1-[7-(4-carbamoyl-4-methyl-1-piperidyl)-2-(2-chlorophenyl)-3-(4-chlorophenyl)pyrazolo[1,5-a]pyrimidin-5-yl]pyrrolidine-2-carboxylic acid], the IC50 at human CB1 receptor [1] was found to be 56.2 nM; at human CB1 receptor [2], 109 nM.
With `CC1(C(N)=O)CCN(c2cc(N3CC[C@@H]3CC(=O)O)nc3c(-c4ccc(Cl)cc4)c(-c4ccccc4Cl)nn23)CC1` [Compound 19, 2-[(2R)-1-[7-(4-carbamoyl-4-methyl-1-piperidyl)-2-(2-chlorophenyl)-3-(4-chlorophenyl)pyrazolo[1,5-a]pyrimidin-5-yl]azetidin-2-yl]acetic acid], the IC50 at human CB1 receptor [1] is 1480 nM; on human CB1 receptor [2], above 10000 nM.
With `CN(CC(C)(C)O)c1cc(N2CCC(C)(C(N)=O)CC2)n2nc(-c3ccccc3Cl)c(-c3ccc(Cl)cc3)c2n1` [Compound 20, 1-[2-(2-chlorophenyl)-3-(4-chlorophenyl)-5-[(2-hydroxy-2-methyl-propyl)-methyl-amino]pyrazolo[1,5-a]pyrimidin-7-yl]-4-methyl-piperidine-4-carboxamide], the IC50 amounted to 5.53 nM at human CB1 receptor [1] and 22.8 nM at human CB1 receptor [2].
For `CC1(C(N)=O)CCN(c2cc(N3CC[C@@H](O)C3)nc3c(-c4ccc(Cl)cc4)c(-c4ccccc4Cl)nn23)CC1` [Compound 21, 1-[2-(2-chlorophenyl)-3-(4-chlorophenyl)-5-[(3R)-3-hydroxypyrrolidin-1-yl]pyrazolo[1,5-a]pyrimidin-7-yl]-4-methyl-piperidine-4-carboxamide], the IC50 was 1.28 nM at human CB1 receptor [1] and 4.6 nM at human CB1 receptor [2].
On to `CN(CCC(N)=O)c1cc(N2CCC(C)(C(N)=O)CC2)n2nc(-c3ccccc3Cl)c(-c3ccc(Cl)cc3)c2n1` [Compound 22, 1-[5-[(3-amino-3-oxo-propyl)-methyl-amino]-2-(2-chlorophenyl)-3-(4-chlorophenyl)pyrazolo[1,5-a]pyrimidin-7-yl]-4-methyl-piperidine-4-carboxamide], for which the IC50 at human CB1 receptor [1] is 0.99 nM; on human CB1 receptor [2], 9.15 nM.
The like results for `CN(CCC(N)=O)c1cc(N2CCC[C@@H](C(N)=O)C2)n2nc(-c3ccccc3Cl)c(-c3ccc(Cl)cc3)c2n1` [Compound 23, (3R)-1-[5-[(3-amino-3-oxo-propyl)-methyl-amino]-2-(2-chlorophenyl)-3-(4-chlorophenyl)pyrazolo[1,5-a]pyrimidin-7-yl]piperidine-3-carboxamide] were, in that order, 25.5 nM and 101 nM.
The like results for `CN(CCC(N)=O)c1cc(N2CC(CC(N)=O)C2)n2nc(-c3ccccc3Cl)c(-c3ccc(Cl)cc3)c2n1` [Compound 24, 3-[[7-[3-(2-amino-2-oxo-ethyl)azetidin-1-yl]-2-(2-chlorophenyl)-3-(4-chlorophenyl)pyrazolo[1,5-a]pyrimidin-5-yl]-methyl-amino]propanamide] were, in that order, 14.6 nM and 94.6 nM.
With `CN(C)C(=O)CN(C)c1cc(N2CCC(C)(C(N)=O)CC2)n2nc(-c3ccccc3Cl)c(-c3ccc(Cl)cc3)c2n1` [Compound 25, 1-[2-(2-chlorophenyl)-3-(4-chlorophenyl)-5-[[2-(dimethylamino)-2-oxo-ethyl]-methyl-amino]-pyrazolo[1,5-a]pyrimidin-7-yl]-4-methyl-piperidine-4-carboxamide], the IC50 at human CB1 receptor [1] amounted to 6.47 nM; at human CB1 receptor [2] it was 17.5 nM.

Values taken from patent publication US20250145628A1, “PYRAZOLOPYRIMIDINES, COMPOSITIONS COMPRISING THEM AND USES THEREOF” (Novo Nordisk A/S, priority 2022, published 2025).
